Data published in article PMC3788796, “The Antimicrobial Domains of Wheat Puroindolines Are Cell-Penetrating Peptides with Possible Intracellular Mechanisms of Action” (PLoS ONE, 2013).

Key:
[1] = Calcein dye leakage from bacteria-mimicking LUVs; format: biochemical; conditions: LUVs 10 µM phospholipid, 10 mM Tris, 100 mM NaCl pH 7.4, 5 min, fluorescence 496/515 nm, no-peptide control 28.5, average of duplicate experiments
Procedure: A calcein leakage assay as previously described was performed to determine the effects of PIN-based peptides on the permeability of synthetic large unilamellar vesicles (LUVs), designed to mimic bacterial and mammalian cell membranes. The phospholipids used were DOPC (1,2-dioleoyl-sn-glycero-3-phosphocholine), with zwitterionic head groups and DOPG (1,2-dioleoyl-sn-glycerol-3-[phosphor-rac-(1-glycerol)]), with negatively charged headgroups (Avanti® Polar lipids, Alabaster, USA). These were used to make DOPC:DOPG (1∶3) LUVs to mimic bacterial cell membranes, or DOPC only, to mimic mammalian cell membranes. Calcein-entrapped LUVs were prepared by the extrusion method using an Avanti mini extrusion apparatus (Avanti® Polar Lipids, Alabaster, USA). The DOPC:DOPG (a 1∶3 mixture) or DOPC were dissolved in chloroform (25 mg/mL) and aliquoted into glass test tubes to give a concentration of 2.6 mM when resuspended in 2 mL buffer. Chloroform was evaporated under a stream of N2 and the lipid films were dried overnight under vacuum. The films were then resuspended in 2.0 mL of 70 mM calcein buffer (in 10 mM Tris-HCl, pH 7.4) and incubated at room temperature for 30 minutes. To increase entrapment of the dye, five repeated freeze\thaw cycles were used by placing the vial in liquid N2 and then a warm water bath (37°C). The lipid mixture was then extruded through the mini-extruder 10 times through two stacked 0.1 µm pore-size filters. Free calcein was removed by centrifugation (10, 000×g, 10 min) three times and washing with 10 mM Tris, 100 mM NaCl buffer (pH 7.4). Standards of phosphorus (inorganic P; Pi) were prepared (0.05–1.5 mg/mL) using KH2PO4 and read at 820 nm and a linear standard curve was generated (Figure S1 in File S1). The phospholipid concentration of the vesicle preparations was determined by a total phosphorus assay. The assay reagent was prepared fresh by mixing 1 part of 1% ascorbic acid with 6 parts of 0.42% ammonium molybdate•4H2O in H2SO4 and stored on ice. 7 µL of it was added to 3 µL of vesicle suspensions and incubated for 20 min at 45°C. […] The standard curve of phosphorus standards (Figure S1 in File S1) was used to determine the Pi concentration in a LUV preparation, and this was converted to phospholipid concentration (Table S1 in File S1) to adjust the preparations to the required 10 µM phospholipid concentration prior to peptide treatment.
The calcein-filled LUVs were diluted with 10 mM Tris, 100 mM NaCl buffer (pH 7.4) to a final phospholipid concentration of 10 µM. The experiments were performed in a Varian Cary Eclipse fluorescence spectrophotometer with excitation and emission wavelengths of 496 nm and 515 nm, slit widths of […] and a PMT detector of 600 V. The peptides (PuroA, Pina-M, Pina-W→F and PuroB) were added to LUVs to a final peptide concentration of 8–125 µg/mL in 100 µL volumes and the fluorescence (F) monitored for 5 min at 60 s intervals. The total calcein fluorescence (FT) was determined by addition of 1.0% Triton X100. The dye leakage was calculated as % Leakage = ((F – F0)/(FT – F0)), F0 being fluorescence of each sample at T = 0.

[2] = test system: Saccharomyces cerevisiae (ATCC 287); test: MIC of the peptides against yeast cells; format: cell-based; conditions: PDB, 96-well two-fold dilution 250 to 2 µg/mL, 0.5–2×10^3 cells/mL, overnight 30°C, growth observed visually
Procedure: Saccharomyces cerevisiae (ATCC 287) was grown in Potato Dextrose Broth (PDB) overnight at 30°C with shaking at 220 rpm. The cultures were vortexed vigorously and the cell suspension adjusted to 1–5×10^6 cells/mL with PDB (McFarland standard 0.5) and then diluted 1∶200 with PDB to a final concentration of 0.5–2×10^3 cells/mL [37]. The MIC assays were carried out in 96-well plates as described previously. Peptides (PuroA, Pina-M, Pina-W→F and PuroB) in 25 µL volumes were added to the first empty well and a two-fold dilution was carried out across each row with a starting peptide concentration of 250 µg/mL and a final one of 2 µg/mL. Test wells were subsequently inoculated with 75 µL yeast cells (0.5–2×10^3 cells/mL) and incubated overnight at 30°C. Negative control (no peptide) and positive control (fungicide Mycobutanil) wells were also prepared. The MIC was defined as the lowest concentration of the peptide required to inhibit fungal growth, observed visually.

S. cerevisiae cells = test: Propidium iodide uptake by yeast cells; format: cell-based, Saccharomyces cerevisiae; conditions: for % fluorescent cells (propidium iodide uptake): 1 h 30°C in PBS pH 7.4, PI 6 µg/mL 5 min, no-peptide control 5.7, average of 4 fields, two independent experiments
Procedure: S. cerevisiae was grown overnight at 30°C in 100 mL PDB and the cells collected by centrifugation and resuspended in Phosphate Buffered Saline (PBS: 137 mM NaCl, 2.7 mM KCl, 8 mM Na2HPO4, 1.46 mM KH2PO4; pH 7.4) to ∼1.5×10^7 cells/mL (OD600 = 0.6–0.8). 75 µL of the suspension was incubated with 25 µL of stock solutions of PuroA, Pina-M, Pina-W→F, PuroB and indolicidin (to give a final peptide concentration of 64, 125, 250 or 500 µg/mL), or with PBS (for no-peptide controls) for 1 h at 30°C, followed by staining with propidium iodide (PI) as described. PI stock solution (60 µg/mL) was prepared in MilliQ water and stored in dark at −20°C. It was diluted to 12 µg/mL before use, mixed 1∶1 with peptide-treated or untreated yeast cells (to final PI concentration 6 µg/mL), and the samples incubated in the dark for 5 min. A 10 µL aliquot of these was examined using a Nikon Eclipse 50 i fluorescence microscope with 561 nm excitation and 630/22 emission filter, at 400×magnification. The photomicrographs were taken under light and fluorescence for each field. Five randomly selected fields were recorded and scored for each sample.

## FPVTFRFFKFFKG-NH2 [Pina-W→F, PuroA-based peptide with all Trps substituted with Phe residues]
[1]; peptide 8 µg/mL
  % Calcein leakage from DOPC:DOPG LUVs: 29.2%
[1]; peptide 16 µg/mL
  % Calcein leakage from DOPC:DOPG LUVs: 32.0%
[1]; peptide 32 µg/mL
  % Calcein leakage from DOPC:DOPG LUVs: 64%
[1]; peptide 64 µg/mL
  % Calcein leakage from DOPC:DOPG LUVs: 78.0%
[1]; peptide 125 µg/mL
  % Calcein leakage from DOPC:DOPG LUVs: 81.0%
[2]
  MIC against S. cerevisiae: 250 µg/mL
S. cerevisiae cells; peptide 64 µg/mL
  % fluorescent cells (propidium iodide uptake): 56.5%
S. cerevisiae cells; peptide 125 µg/mL
  % fluorescent cells (propidium iodide uptake): 72.3%
S. cerevisiae cells; peptide 250 µg/mL
  % fluorescent cells (propidium iodide uptake): 100%
S. cerevisiae cells; peptide 500 µg/mL
  % fluorescent cells (propidium iodide uptake): 100%
S. cerevisiae cells; peptide below its MIC against yeast
  cells permeable to propidium iodide at sub-MIC levels: 56–72%
S. cerevisiae cells; peptide equal to or greater than its MIC for yeast
  cells permeable to propidium iodide at MIC levels and higher: 100%
